This is an account of results in ChEMBL document CHEMBL1201862, “PubChem BioAssay data set” (2004).

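The compound was tested at five concentrations on cells cultured in 96-well plates, with a 48-hour exposure period. GI50: concentration for 50% inhibition of growth.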 Calls of active or inactive are those of the source. Rule as the data show it: active = GI50 up to about 1.1 µM and inactive = higher.

Test systems include COLO 205; HL-60; HT-29; IGROV-1; K562; LOX IMVI; M14; MOLT-4; NCI-H522; RPMI-8226; SF-295; SF-539; SNB-19; UACC-62; A498; UACC-257.
Holding throughout (assay): NCI tumour cell line growth inhibition, 48 h

For the compound `Cn1nc(-c2ccccc2)c(C(=O)/C=C/c2ccc(Cl)cc2)c(N2CCCC2)c1=O`, the GI50 with COLO 205 is 2.11 µM (inactive); in the test on HL-60, 1.92 µM (inactive); with HT-29 it was 2.21 µM (inactive); with IGROV-1, 6.31 µM (inactive); with K562, 2.66 µM (inactive); in the test on LOX IMVI, 3.8 µM (inactive). The GI50 is 5.33 µM (inactive) in the test on M14; 2.38 µM (inactive) in the test on MOLT-4; 2.07 µM (inactive) in the test on NCI-H522; 2.7 µM (inactive) with RPMI-8226; 0.632 µM (active) in the test on SF-295; 3.55 µM (inactive) with SF-539. Besides, the GI50 with SNB-19 is 10 µM (inactive); in the test on UACC-62, 4.55 µM (inactive).
As to `CC(=O)/C=C/c1cccc(N=S)c1`, the GI50 in the test on A498 was 27 µM (inactive); in the test on COLO 205, 20.1 µM (inactive); with HL-60, 5.79 µM (inactive); in the test with HT-29, 6.28 µM (inactive); in the test on IGROV-1 it was 19.2 µM (inactive); in the test on K562, 4.62 µM (inactive). Also, the GI50 in the test on LOX IMVI was 2.39 µM (inactive); in the test with M14 it was 6.71 µM (inactive); in the test on MOLT-4 it was > 40.1 µM (inactive); with NCI-H522 it was 18.6 µM (inactive); in the test with RPMI-8226 it was 3.63 µM (inactive); in the test on SF-295, 15.2 µM (inactive). Besides, the GI50 in the test on SF-539 is 5.9 µM (inactive); with SNB-19, > 43.2 µM (inactive); with UACC-257 it was 29.4 µM (inactive); in the test on UACC-62 it was 21.6 µM (inactive).
On to `C=CN1C(=O)[C@H](Oc2ccccc2)[C@@H]1c1ccccc1`, for which the GI50 is 71.4 µM (inactive) with A498; 22.7 µM (inactive) with HT-29; > 100 µM (inactive) in the test on IGROV-1; 36.3 µM (inactive) in the test with K562; 33.1 µM (inactive) in the test with M14; 36.6 µM (inactive) with MOLT-4. Moreover, the GI50 in the test with NCI-H522 was 32.6 µM (inactive); with RPMI-8226, 20.3 µM (inactive); in the test on SF-295, 26.1 µM (inactive); in the test on SF-539 it was 16.2 µM (inactive); with SNB-19 it was 33.6 µM (inactive); with UACC-257, 41.5 µM (inactive).
As to `Cc1ccc(NC(=O)CCc2n[nH]c(=S)o2)cc1`, the GI50 in the test on A498 was > 100 µM (inactive); in the test on COLO 205 it was > 100 µM (inactive); with HL-60, > 100 µM (inactive); with HT-29 it was > 100 µM (inactive); in the test on IGROV-1 it was > 100 µM (inactive); with K562, 44.6 µM (inactive). The GI50 with LOX IMVI, in the test on M14, with MOLT-4, in the test with NCI-H522, in the test with SF-295 and in the test with SF-539 was > 100 µM (inactive) each time. Further, the GI50 was > 100 µM (inactive) in the test on SNB-19, > 100 µM (inactive) in the test with UACC-257 and > 86.3 µM (inactive) with UACC-62.
For the compound `CCN(CC)c1ccc(/N=N/c2ccc(-c3nc4cccnc4s3)cc2)cc1`, the GI50 in the test on A498, in the test with COLO 205, in the test with HL-60, in the test with HT-29, in the test with IGROV-1 and in the test on K562 was > 100 µM (inactive) in each case. Moreover, the GI50 in the test on M14, in the test with MOLT-4, in the test with NCI-H522, in the test on RPMI-8226, in the test with SF-295 and with SNB-19 was > 100 µM (inactive) in each case. Further, the GI50 in the test with UACC-257 was > 100 µM (inactive); in the test with UACC-62, 97.9 µM (inactive).
In the case of `CC(=O)Nc1ccc(-c2nnc(SCC(=O)Nc3ccccc3C)o2)cc1`, the GI50 is > 100 µM (inactive) in the test with COLO 205; 57.9 µM (inactive) in the test with HL-60; 38 µM (inactive) in the test with HT-29; 67 µM (inactive) in the test with IGROV-1; 82.6 µM (inactive) with K562; 63 µM (inactive) in the test with LOX IMVI. Further, the GI50 is 64.9 µM (inactive) with M14; 51.9 µM (inactive) in the test with MOLT-4; 58.3 µM (inactive) in the test on NCI-H522; 46.3 µM (inactive) with RPMI-8226; 89.7 µM (inactive) in the test with SF-295; > 100 µM (inactive) with SF-539. The GI50 with UACC-257 and with UACC-62 was > 100 µM (inactive) each time.
Regarding `CC(C)(C)OC(=O)c1cccnc1/C=N/O`, the GI50 in the test with COLO 205, in the test with HL-60, in the test with HT-29, in the test with IGROV-1, with K562 and in the test with LOX IMVI was > 100 µM (inactive) in each case. Besides, the GI50 was > 100 µM (inactive) with M14; 68.2 µM (inactive) in the test on MOLT-4; > 100 µM (inactive) in the test on NCI-H522; 78.7 µM (inactive) with SF-295; > 100 µM (inactive) in the test on SF-539; > 100 µM (inactive) in the test on SNB-19. Moreover, the GI50 with UACC-257 and in the test on UACC-62 was > 100 µM (inactive) each time.
Consider `O=C(Nc1nc2ccccc2n1Cc1ccccc1)NC12CC3CC(CC(C3)C1)C2`, for which the GI50 is 48.5 µM (inactive) in the test with COLO 205; > 100 µM (inactive) with HL-60; > 100 µM (inactive) with HT-29; 75.3 µM (inactive) with IGROV-1; > 100 µM (inactive) with K562; 40.3 µM (inactive) in the test on LOX IMVI. The GI50 in the test with M14 is 92.5 µM (inactive); with MOLT-4 it was > 100 µM (inactive); in the test on NCI-H522, 44.7 µM (inactive); with RPMI-8226, > 100 µM (inactive); in the test on SF-295, 13.4 µM (inactive); in the test on SF-539, 36 µM (inactive). The GI50 in the test with SNB-19 is 44.1 µM (inactive); in the test on UACC-257, > 100 µM (inactive); in the test with UACC-62 it was 41.9 µM (inactive).
Take `CNC1=Nc2ccc(Cl)cc2C(OP(=O)(N2CCOCC2)N2CCOCC2)=NC1`: the GI50 with A498, in the test on HL-60, with HT-29, with K562, in the test on LOX IMVI and in the test with M14 was > 100 µM (inactive) throughout. Moreover, the GI50 was > 100 µM (inactive) in the test with MOLT-4; 26.5 µM (inactive) in the test on NCI-H522; > 100 µM (inactive) with RPMI-8226; > 100 µM (inactive) with SF-295; > 100 µM (inactive) in the test with SF-539; > 100 µM (inactive) with SNB-19. In addition, the GI50 in the test with UACC-257 and in the test with UACC-62 was > 100 µM (inactive) throughout.
Consider `CCOC(=O)C1=C(c2ccccc2)NC(c2ccccc2)=C(C(=O)OCC)c2c1c(=O)cc[nH]c2=O`, for which the GI50 with COLO 205 was > 100 µM (inactive); in the test on HL-60, > 100 µM (inactive); in the test on HT-29, 74.8 µM (inactive); with IGROV-1, > 100 µM (inactive); with K562 it was 39.9 µM (inactive); with LOX IMVI it was 62.1 µM (inactive). For the same compound, the GI50 in the test with M14 was > 100 µM (inactive); in the test on MOLT-4, 63.1 µM (inactive); in the test with NCI-H522, 84.1 µM (inactive); in the test with RPMI-8226 it was 53.1 µM (inactive); in the test with SF-295 it was 86.7 µM (inactive); in the test on SF-539 it was > 100 µM (inactive). Further, the figures for the GI50 in the test on SNB-19, in the test on UACC-257 and in the test with UACC-62 were > 100 µM (inactive), 99.8 µM (inactive) and 26.4 µM (inactive), respectively.
Take `Cn1cc(NC(=O)c2cc(NC(=O)CCCCCC(=O)Nc3cc(C(=O)Nc4cc(C(=O)NCCC(=N)N)n(C)c4)n(C)c3)cn2C)cc1C(=O)NCCC(=N)N`: the GI50 in the test with A498 was > 100 µM (inactive); with COLO 205 it was > 100 µM (inactive); in the test on HL-60, 30 µM (inactive); with HT-29, > 100 µM (inactive); in the test on IGROV-1, 98.6 µM (inactive); in the test with K562, 83.6 µM (inactive). Besides, the GI50 in the test with LOX IMVI was 46.1 µM (inactive); with M14, > 100 µM (inactive); in the test with SF-295 it was > 100 µM (inactive); with SF-539, > 100 µM (inactive); in the test on SNB-19 it was > 100 µM (inactive); in the test with UACC-257 it was 27.2 µM (inactive). The GI50 with UACC-62 is 64.9 µM (inactive).
Regarding `N#C/C(=C/c1cccc2ccccc12)C(=O)c1ccccc1`, the GI50 in the test on A498 is 23.1 µM (inactive); in the test with HL-60, 19.4 µM (inactive); in the test with HT-29, > 100 µM (inactive); with IGROV-1, 24.3 µM (inactive); with K562, > 10 µM (inactive); in the test on LOX IMVI it was 19.5 µM (inactive). Moreover, the GI50 was 16.9 µM (inactive) in the test on M14; 14.7 µM (inactive) in the test with MOLT-4; 21.5 µM (inactive) in the test with NCI-H522; 22.3 µM (inactive) with RPMI-8226; 20 µM (inactive) with SF-295; 17.7 µM (inactive) in the test on SF-539. Besides, the results for the GI50 in the test with SNB-19, with UACC-257 and with UACC-62 were 19.9 µM (inactive), > 10 µM (inactive) and 18.3 µM (inactive), respectively.
Regarding `O=C(c1ccccc1)N1C2C3CC(OCc4ccccc4)(OCc4ccccc4)C(O3)C21` (stereo not drawn), the GI50 in the test with A498 is > 100 µM (inactive); with COLO 205, > 100 µM (inactive); in the test on HL-60, > 100 µM (inactive); in the test with IGROV-1 it was > 100 µM (inactive); in the test with K562, 62.2 µM (inactive); in the test on LOX IMVI it was > 100 µM (inactive). In addition, the GI50 is > 100 µM (inactive) in the test with M14; > 100 µM (inactive) with MOLT-4; > 100 µM (inactive) in the test with NCI-H522; 54.2 µM (inactive) in the test on RPMI-8226; > 100 µM (inactive) with SF-539; > 100 µM (inactive) in the test on SNB-19. The GI50 in the test with UACC-62 was > 100 µM (inactive).
With `O=c1cccccc1O.O=c1cccccc1O.O=c1cccccc1O.[SiH4]`, the GI50 in the test on A498 was 34.4 µM (inactive); with COLO 205 it was 11 µM (inactive); in the test with HT-29, 33.4 µM (inactive); with IGROV-1, 12.8 µM (inactive); with K562, 6.87 µM (inactive); in the test with M14, 33.5 µM (inactive). In addition, the GI50 with MOLT-4 is 5.74 µM (inactive); in the test with NCI-H522, 2.33 µM (inactive); with RPMI-8226, 9.73 µM (inactive); in the test with SF-295, 41.2 µM (inactive); with SF-539, 18.3 µM (inactive); with SNB-19 it was > 100 µM (inactive). For the same compound, the GI50 in the test with UACC-257 was 21 µM (inactive); in the test on UACC-62, 0.822 µM (active).
